These results are taken from patent publication US8293745B2 (Bioniche Life Sciences Inc., priority 2004, dated 2012).

One series concerns HIV-1. To be noted: cited from earlier work.
The test system of another series is EMC virus. Conditions: L929 cells; cited from earlier work.
The next series deals with HCV. Conditions: 400 mg/day.
The test system of series [1] is GIST of the posterior wall of the stomach. Put plainly: Imatinib mesylate treatment of GIST in the same patient.
A further series relates to chronic phase CML. Conditions: high-dose, newly diagnosed chronic phase CML; cited from earlier work.
In another series the test system is c-Kit tyrosine kinase. Conditions: cited from earlier work.
The mark [2] stands for this setting: human patient with HCV and GIST, within 2 weeks after the beginning of treatment, FIG. 1.

Experimental for HCV: A person diagnosed with chronic active hepatitis C. […] The patient was positive for antibodies for HCV. Histological confirmation of chronic hepatitis was corroborated by positive hepatic biopsies at month zero.
For 18 months, the patient was treated with interferon alpha-2 at 180 μg/week. For the next 4 months, the patient was given intravenous administration of 6 million units (MU) interferon-beta daily for 6 weeks followed by three times weekly for 20 weeks. Subsequently, the patient was treated with interferon alpha-2 at 180 μg/week plus ribavirin 1000-1200 mg/day for 5 months. Subsequently, the patient was treated with pegylated interferon alpha-2b (PEG-interferon) at 1.5 μg/kg once weekly for 25 months.
Subsequently, the patient was diagnosed with a GIST of the posterior wall of the stomach. […] The patient then underwent surgical resection of the GIST.

In the case of `OCCC#Cc1nc(-c2ccc(F)cc2)c(-c2ccncc2)n1CCCc1ccccc1` [RWJ67657], the HIV-1 replication entry with HIV-1 is given as “effective in inhibiting HIV-1 replication”.

In the case of `O=c1c(-c2ccc(O)cc2)coc2cc(O)cc(O)c12` [genistein], in the series on EMC virus, the EMC virus replication result is given as “suppressed viral replication”.

Regarding `CO[C@H]1[C@@H](OC)C[C@H](C)[C@@H](OC)C2=CC(=O)C=C(NC(=O)/C(C)=C/C=C\[C@H](OC)[C@@H](OC(N)=O)/C(C)=C/[C@@H]1C)C2=O` [herbimycin A], the EMC virus replication result in the series with EMC virus is reported as “suppressed viral replication”.

With `CS(=O)(=O)O.Cc1ccc(NC(=O)c2ccc(CN3CCN(C)CC3)cc2)cc1Nc1nccc(-c2cccnc2)n1` [imatinib mesylate, 4-[(4-methyl-1-piperazinyl)methyl]-N-[4-methyl-3-[[4-(3-pyridinyl)-2-pyrimidinyl]amino]phenyl]-benzamide methanesulfonate], in the series with HCV (setting [2]), the “levels of alanine aminotransferase” value is “dramatically decreased” and the “levels of aspartate aminotransferase” value was “dramatically decreased”. The quality of life result with HCV (patient-reported) is on record as “clear improvement”. Moreover, the “remission of GIST” value in series [1] (400 mg/day, pre- and postoperative) is “achieved cytogenetic and molecular remission”. For the same molecule, the complication during treatment result in series [1] (after 5 months preoperative 400 mg/day, treatment halted) is reported as “acute hemorrhage of the tumor”. In addition, in series [1] (after imatinib mesylate treatment), the “attenuation of the gastric tumor (histologic examination)” value is reported as “significant decreased attenuation”. Also, the metastasis status result in series [1] (one year after the initiation of treatment) is listed as “without metastasis”.

As for `Cc1ccc(NC(=O)c2ccc(CN3CCN(C)CC3)cc2)cc1Nc1nccc(-c2cccnc2)n1` [imatinib, 4-[(4-methyl-1-piperazinyl)methyl]-N-[4-methyl-3-[[4-(3-pyridinyl)-2-pyrimidinyl]amino]phenyl]-benzamide], the “rates of complete cytogenetic response and of molecular response” value in the series on chronic phase CML is given as “higher rates”. The “inhibition of c-Kit tyrosine kinase activity, wild-type vs constitutively active enzyme” value in the series on c-Kit tyrosine kinase is “equally effective against both wild-type and constitutively active enzyme”.
